Measurements as given in patent US20210038503A1, “COMPOSITIONS AND METHODS FOR TOPICAL TREATMENT OF DERMAL AND OCULAR CONDITIONS” (GABADERM, INC., priority 2018, published 2021).
“Also recorded” adds a separate entry of the source. Read-outs that look alike come from different tables or passages of the source.

Assays:
[1] = Description: Stability was determined visually by separation of the emulsion and also analytically by changes in measured concentration of the cream and/or the formation of degradation products. […] Heavier oils include petrolatum or mineral oil.
[2] = system: oxalobenzone treated ear; test: Oxalobenzone induced mouse ear inflammatory model (ear thickness); assay type: in vivo; details: for Inflammation (ear thickness): 100 μl at 1 hour and 6 hours post challenge, 24 hours and 48 hours
Description: Animals were sensitized to oxalbenzone on the abdomen on day 2 with 150 μl 3% oxalbenzone. Animals were challenged on day 5 with 1% oxalobenzone to both sides of one ear. This served as an in vivo pharmacological disease models for psoriasis and atopic dermatitis.
Ear thickness was measured with calipers at 24 hours and 48 hours and compared to contralateral non-challenged ear. Ear thickness served as an indication of swelling due to inflammation. The greater the ear thickness, the greater the inflammation.

[3] = system: psoriatic lesions; details: for Number of psoriatic lesions: 2% propofol solution twice daily
Description: Areas of the lesion are roughly outlined.
The plaque psoriatic lesion was raised and more lightly colored than the unaffected skin.

[4] = system: skin
Remark: listed apart in the source
[5] = estimated 250 times lower than rat plasma levels
[6] = in vivo; cited from earlier work
[7] = in vivo; cited from earlier work; remark: listed apart in the source
[8] = local administration of propofol
[9] = 20% propofol-propylene glycol plus 30% w/w surfactant penetration enhancer
[10] = 20% w/w propofol in propylene glycol

## CC(C)c1cccc(C(C)C)c1O [propofol]
[1]; oil-in-water or water-in-oil formulations with a heavier oil or longer chain oil (petrolatum or mineral oil)
  Stability: stable
[1]; penetration enhancer limited to less than 10% w/w, particularly propofol greater than 2%
  Stability: stable
[1]; propofol >10% w/w in HRT™ (gel or cream)
  Stability: not stable
[1]; propofol >10% w/w in Lipoderm®
  Stability: not stable
[1]; propofol >10% w/w in Medihol™ gel base
  Stability: not stable
[1]; propofol >10% w/w in Vanish-Pen™ Cream base
  Stability: not stable
[1]; propofol >10% w/w in VersaPro™ (lotion or cream)
  Stability: not stable
[1]; propofol at 10% w/w in Lipoderm® (mineral oil-free)
  Stability: not stable
[2]; 10% w/w propofol in DMSO
  Inflammation (ear thickness): significantly reduces inflammation
[2]; 20% w/w propofol in DMSO
  Inflammation (ear thickness): significantly reduces inflammation
[2]; topical propofol, formulation not specified at the place
  Skin inflammation / ear swelling: reduces skin inflammation; also recorded: reduces ear swelling and inflammation
[3]; after a week
  Number of psoriatic lesions: further reduced
[3]; after three days
  Number of psoriatic lesions: reduced
[3]; 10% propofol in cream twice daily, over the course of treatment
  Plaque psoriatic lesion height and area, left forearm: diminished in height and area
[3]; [8]
  Local anti-inflammatory effect: anti-inflammatory effects locally
  Sustained anti-nociceptive effect: reduced sensation of itch and burning
[3]; propofol in a cream based formulation
  Psoriatic lesions (FIG. 7 legend): reduced
[3]; repeated application of propofol
  Neurogenic inflammation: less neurogenic inflammation
[3]; topical application of propofol, summary
  Gutate and plaque psoriatic lesions: resolution of gutate and plaque psoriatic lesions
[4]; 10% propofol in DMSO
  Acute skin reaction (redness with wheal-flare effect): significant burning and inflammation
  Time to onset of burning and inflammation after treatment: 10 to 15 min
  Time until acute effect resolved: about 90 minutes
  Treatment effect despite initial inflammatory response: significant treatment effect
[4]; 10% propofol in mineral oil containing cream
  Acute skin reaction (redness with wheal-flare effect): did not result in this effect
[9]
  Increase of plasma concentration: 3 to 5 fold
  Plasma concentration: approximately 350 ng/ml
[10]
  Increase of plasma concentration: 2-3 fold
  Plasma concentration: 175 to 200 ng/mL
rats, 500 mg of 100% propofol on skin, ~[…] body surface area
  Plasma concentration: 400 ng/mL
rats, 20% w/w propofol in petrolatum (100 mg total dose), ~[…] body surface area
  Plasma levels: 50 to 100 ng/mL
[5]
  Human equivalent plasma concentration: 0.4 to 2 ng/mL
[6]
  Plasma levels at which wakening from propofol anesthesia occurs: less than 500 μg/ml
  Plasma steady state levels used to maintain anesthetized state: 1,000-2,000 ng/ml
[7]
  Oral bioavailability: < 10%
